Source: patent publication US7282210B2, “Process for the in vitro culture of different stages of tissular parasites” (priority 1993, dated 2007)

What was measured:
[1] = test system: cultured amastigote forms of L. mexicana, L. amazonensis, L. braziliensis and L. chagasi; test: direct leishmanicidal effect of nitric oxide on cultured amastigote forms; format: cell-based, Leishmania
Text: (§1) Also, one of the mechanisms leading to lysis of the amastigote forms was elucidated.
The culture kinetics as well as the differentiation of the amastigote forms into promastigote forms were monitored after this treatment.

[2] = test system: untreated promastigote forms of L. mexicana; test: growth inhibition by pentamidine, untreated promastigote forms; format: cell-based; conditions: Leishmania mexicana, read-out: IC50 (concentration of pentamidine for which a growth inhibition of 50% is observed)
Text: (§2) In the stage of putting in contact, the parasitic forms are used at concentrations of 10^6 parasite/ml and the activity of the medicaments is studied at increasing concentrations.
(§3) Promastigote forms of L. mexicana resistant to pentamidine are obtained by medicamentous pressure in vitro and have a resistance index of about 30. They are then transformed according to the culture method already described into corresponding cultured amastigote forms which, after determination of the IC50, retain the resistance to pentamidine induced in the promastigote forms.
(§4) For the promastigotes the value is 27 and for the amastigotes it is 26.

[3] = test system: resistant amastigote forms of L. mexicana; test: growth inhibition by pentamidine, resistant amastigote forms; format: cell-based
Text: as §2, §3, §4

[4] = test system: resistant promastigote forms of L. mexicana; test: growth inhibition by pentamidine, resistant promastigote forms; format: cell-based; conditions: Leishmania mexicana, read-out: IC50 (concentration of pentamidine for which a growth inhibition of 50% is observed)
Text: as §2, §3, §4

[5] = test system: cis-aconitase; test: enzymatic activities of amastigote forms treated or not treated with NO; format: biochemical, Leishmania
Text: as §1

[6] = medium containing alpha-ketoglutaric acid (3 mM) and cis-aconitate (3 mM) added immediately to parasites treated with NO

SMILES: O=C(O)/C=C(/CC(=O)O)C(=O)O [cis-aconitate]
- growth of NO-treated amastigote forms [1, 6]: restore the growth of the amastigote forms

SMILES: N=C(N)c1ccc(OCCCCCOc2ccc(C(=N)N)cc2)cc1 [pentamidine]
- IC50 [2]: 1.2 ± 0.05 µM
- IC50 ([3]; Leishmania mexicana, read-out: IC50 (concentration of pentamidine for which a growth inhibition of 50% is observed)): 32 ± 1 µM
- resistance index (IC50 of the resistant strain/IC50 of the untreated strain) ([3]; amastigotes): 26
- IC50 [4]: 33 µM

SMILES: O=C(O)CCC(=O)C(=O)O [alpha-ketoglutaric acid]
- growth of NO-treated amastigote forms [1, 6]: restore the growth of the amastigote forms

SMILES: O=S(=O)([O-])[O-].[Fe+2] [FeSO4]
- growth of NO-treated amastigote forms ([1]; medium containing 100 μm of FeSO4 added immediately to parasites treated with NO): restore the growth of the amastigote forms

SMILES: [N]=O [NO, nitric oxide]
- effect on cis-aconitase activity [5]: inhibition of cis-aconitase
- leishmanicidal effect on cultured amastigote forms ([1]; gaseous NO (1%) carried by nitrogen (99%), pulsed for 15 minutes): leishmanicidal activity
